Consider 33 compounds from ChEMBL document CHEMBL1155480, “Selective one-pot multicomponent synthesis and anti-tubercular evaluation of 5-(aryl/cyclohexylsulfanyl)-2-alkoxy-4,6-diarylnicotinonitriles” (2010).

In brackets after ≈: the same amount, converted by molar mass.

The test concerns Mycobacterium tuberculosis. The experiment in a line: Antimycobacterial activity against Mycobacterium tuberculosis H37Rv by agar dilution method. In kind it is functional. In general terms: In agar dilution, organisms are placed on agar that contains the substance at set levels.
As to `CCOc1nc(-c2ccc(OC)cc2)c(Sc2ccc(Cl)cc2)c(-c2ccc(N(C)C)cc2)c1C#N`, the MIC came to 24.2 µM (≈ 12.5 µg/mL). For `COc1nc(-c2ccc(Cl)cc2)c(Sc2ccc(Cl)cc2)c(-c2ccccc2)c1C#N`, 27.1 µM (≈ 12.6 µg/mL) was the least that counted as inhibitory (MIC). The figure for `CCOc1nc(-c2ccc(Cl)cc2)c(Sc2ccc(C)cc2)c(-c2ccc(N(C)C)cc2)c1C#N` is greater than 50 µM; for `CCOc1nc(-c2ccccc2)c(SC2CCCCC2)c(-c2ccccc2)c1C#N` it is 25 µM (≈ 10.4 µg/mL). The figure for `COc1nc(-c2ccccc2)c(Sc2ccc(Cl)cc2)c(-c2ccc(N(C)C)cc2)c1C#N` is 26.5 µM (≈ 12.5 µg/mL). The compound `CCOc1nc(-c2ccc(Cl)cc2)c(Sc2ccccc2)c(-c2ccc(N(C)C)cc2)c1C#N` had an MIC greater than 51.4 µM. Then `CCOc1nc(-c2ccc(Cl)cc2)c(SC2CCCCC2)c(-c2ccc(N(C)C)cc2)c1C#N`, with 25.4 µM (≈ 12.5 µg/mL); and `CCOc1nc(-c2ccc([N+](=O)[O-])cc2)c(SC2CCCCC2)c(-c2ccccc2)c1C#N`, with 6.8 µM (≈ 3.13 µg/mL); and `COc1nc(-c2ccc(Cl)cc2)c(SC2CCCCC2)c(-c2ccc(C)cc2)c1C#N`, with 28 µM (≈ 12.6 µg/mL).

`CCOc1nc(-c2ccc([N+](=O)[O-])cc2)c(SC2CCCCC2)c(-c2ccc(N(C)C)cc2)c1C#N` had an MIC of 12.5 µM (≈ 6.28 µg/mL).

`CCOc1nc(-c2ccc(Cl)cc2)c(Sc2ccc(C)cc2)c(-c2ccc(OC)cc2)c1C#N`: the MIC amounted to 51.3 µM (≈ 25 µg/mL). As for `CC[C@@H](CO)NCCN[C@@H](CC)CO` [ETHAMBUTOL], the MIC came to 7.6 µM (≈ 1.55 µg/mL). Then `CCOc1nc(-c2ccc(Cl)cc2)c(Sc2ccc(C)cc2)c(-c2ccc(Cl)cc2)c1C#N`, with 25.5 µM (≈ 12.5 µg/mL); and `CCOc1nc(-c2ccc(Cl)cc2)c(SC2CCCCC2)c(-c2ccccc2)c1C#N`, with 27.8 µM (≈ 12.5 µg/mL); and `CCOc1nc(-c2ccc(Cl)cc2)c(Sc2ccccc2)c(-c2ccc(Cl)cc2)c1C#N`, with 26.2 µM (≈ 12.5 µg/mL). The figure for `CCOc1nc(-c2ccc(Cl)cc2)c(Sc2ccc(OC)cc2)c(-c2ccc(N(C)C)cc2)c1C#N` is 48.5 µM (≈ 25 µg/mL). In turn, `CCOc1nc(-c2ccc(Br)cc2)c(Sc2ccc(Cl)cc2)c(-c2ccc(N(C)C)cc2)c1C#N` yielded a minimum inhibitory concentration (MIC) of 5.6 µM (≈ 3.16 µg/mL).

With `COc1nc(-c2ccc(Cl)cc2)c(Sc2ccc(Cl)cc2)c(-c2ccc(N(C)C)cc2)c1C#N`, the minimum inhibitory concentration (MIC) came to 12.4 µM (≈ 6.28 µg/mL). Then `COc1nc(-c2ccc(Cl)cc2)c(SC2CCCCC2)c(-c2ccc(Cl)cc2)c1C#N`, with 13.3 µM (≈ 6.24 µg/mL); and `CCOc1nc(-c2ccc(Cl)cc2)c(Sc2ccc(Cl)cc2)c(-c2ccccc2)c1C#N`, with 13.1 µM (≈ 6.25 µg/mL). The figure for `CCOc1nc(-c2ccc(Cl)cc2)c(SC2CCCCC2)c(-c2ccc(Cl)cc2)c1C#N` is 6.5 µM (≈ 3.14 µg/mL); for `CCOc1nc(-c2ccc(Cl)cc2)c(Sc2ccc(C)cc2)c(-c2ccccc2)c1C#N` it is 54.8 µM (≈ 25 µg/mL). Turning to `COc1nc(-c2ccc(Cl)cc2)c(SC2CCCCC2)c(-c2ccccc2Cl)c1C#N`, the lowest concentration to inhibit growth (MIC) was 13.3 µM (≈ 6.24 µg/mL). `COc1ccc(-c2c(C#N)c(OC)nc(-c3ccc(Cl)cc3)c2Sc2ccc(Cl)cc2)cc1` yielded an MIC of 25.4 µM (≈ 12.5 µg/mL).

`COc1nc(-c2ccc(Cl)cc2)c(Sc2ccc(Cl)cc2)c(-c2ccc(Cl)cc2)c1C#N` had a minimal inhibitory concentration (MIC) of 3.1 µM (≈ 1.54 µg/mL). `CCOc1nc(-c2ccc(Cl)cc2)c(SC2CCCCC2)c(-c2ccc(C)cc2)c1C#N` gave a minimal inhibitory concentration (MIC) of 27 µM (≈ 12.5 µg/mL). The figure for `NC(=O)c1cnccn1` [PYRAZINAMIDE] is 50.8 µM (≈ 6.25 µg/mL); for `COc1ccc(-c2c(C#N)c(OC)nc(-c3ccc(Cl)cc3)c2SC2CCCCC2)cc1` it is 26.9 µM (≈ 12.5 µg/mL); for `COc1nc(-c2ccccc2)c(Sc2ccc(Cl)cc2)c(-c2ccc(Cl)cc2)c1C#N` it is 27 µM (≈ 12.5 µg/mL). The figure for `COc1nc(-c2ccc(Cl)cc2)c(SC2CCCCC2)c(-c2ccc(N(C)C)cc2)c1C#N` is 13.1 µM (≈ 6.26 µg/mL); for `CCOc1nc(-c2ccc(C)cc2)c(SC2CCCCC2)c(-c2ccc(N(C)C)cc2)c1C#N` it is 26.5 µM (≈ 12.5 µg/mL). Then `COc1nc(-c2ccc(Cl)cc2)c(SC2CCCCC2)c(-c2ccccc2)c1C#N`, with 57.6 µM (≈ 25.1 µg/mL); and `NNC(=O)c1ccncc1` [ISONIAZID], with 0.4 µM (≈ 0.0549 µg/mL).

A word on the MIC: it is the lowest concentration found to suppress growth.
